# Values quoted from earlier work, collected in US5998440A, “Azetidine, pyrrolidine and piperidine derivatives” (Merck Sharpe & Dohme Ltd., priority 1995, dated 1999).
# Conditions: humans, therapeutic doses
smiles,measurement,value
CNS(=O)(=O)Cc1ccc2[nH]cc(CCN(C)C)c2c1 [sumatriptan],adverse cardiovascular events,certain adverse cardiovascular events
